{
  "source": "patent US10137141B2",
  "about": "“Treatment regimen tiacumicin compound” (priority 2014, dated 2018)",
  "key": {"[1]": {"system": "C. difficile PCR ribotype 027", "experiment": "In vitro gut model of CDI (three-stage chemostat): C. difficile viable counts, spore counts, cytotoxin titre", "assay_type": "cell-based, Clostridium difficile", "conditions": "both tapered dosing regimens (Model C and D)", "method": "Two 3-stage chemostat gut models were inoculated with pooled faeces (n=5). […] […] 5 days post treatment in the short course model, a further 5 days fidaxomicin pulse was given. CD total viable counts (TVC), spore counts (SP), toxin titres (CYT), and gut bacteria were measured throughout. Data were also compared with results for FDX given for 7 days (model 7).\n(§1) Two tests in a validated three-stage compound continuous culture system (Freeman J, O'Neill F J, Wilcox M H. The effects of cefotaxime and desacetylcefotaxime upon Clostridium difficile proliferation and toxin production in a triple-stage chemostat model of the human gut. J Antimicrob Chemother 2003; 52: 96-102; Baines S D, Freeman J, Wilcox M H. Effects of piperacillin/tazobactam on Clostridium difficile growth and toxin production in a human gut model. J Antimicrob Chemother 2005; 55: 974-82) were run in parallel. Models were inoculated with pooled faecal slurry (10% in anaerobic distilled water) from healthy volunteers (n=5, age >60 yrs).\nThe continuous culture system consisted of three vessels, V1, V2, and V3, with respective operating volumes of 0.22, 0.32, and 0.32 L (FIG. 1). Temperature (37° C.) and pH were automatically controlled to reflect the proximal-distal colon. Culture pH in the three vessels was 5.5, 6.2, and 6.8, respectively. Each fermentor was magnetically stirred and maintained under an atmosphere of CO2. The growth medium was continuously sparged with O2-free N2 and fed by peristaltic pump to V1. V1 sequentially supplied V2 and V3 via a series of weirs. The culture medium consisted of the following constituents (g liter-1) in distilled water: starch (BDH Ltd.), 5.0; pectin (citrus), 2.0; guar gum, 1.0; mucin (porcine gastric type III), 4.0; xylan (oatspelt), 2.0; arabinogalactan (larch wood), 2.0; inulin, 1.0; casein (BDH Ltd.), 3.0; peptone water, 5.0; tryptone, 5.0; bile salts No. 3, 0.4; yeast extract, 4.5; FeSO4 z 7H2O, 0.005; NaCl, 4.5; KCl, 4.5; KH2PO4, 0.5; MgSO4 z 7H2O, 1.25; CaCl2 z 6H2O, 0.15; NaHCO3, 1.5; cysteine, 0.8; hemin, 0.05; Tween 80, 1.0 The system was initially operated at a retention time (R) of 27.1 h (experiment 1), followed by an increase to R=66.7 h (experiment 2). Retention time was calculated as the reciprocal of dilution rate. System retention constitutes the sum of individual R values in each fermentor. Minimum doubling times of bacteria were calculated as 0.693/D, where D is the dilution rate (h−1) for each culture vessel. Each fermentor was inoculated with 100 ml of a fresh 10% (w/v) fecal slurry from a healthy, nonmethane producing donor. […] Steady-state conditions were assessed by monitoring short-chain fatty acid (SCFA) formation. […]"}, "[2]": {"system": "Bifidobacteria", "experiment": "In vitro gut model: gut microflora by selective culture, Bifidobacteria", "assay_type": "cell-based", "method": "Two 3-stage chemostat gut models were inoculated with pooled faeces (n=5). […] Models were then treated with fidaxomicin (200 mg/L bd) for 20 or 5 d to achieve in vivo gut levels. 5 days post treatment in the short course model, a further 5 days fidaxomicin pulse was given. CD total viable counts (TVC), spore counts (SP), toxin titres (CYT), and gut bacteria were measured throughout. Data were also compared with results for FDX given for 7 days (model 7).\nas §1, with “Models were inoculated with pooled faecal slurry (10% in anaerobic distilled water) from healthy volunteers (n=5, age >60 yrs).” left out\n(§2) The continuous culture system consisted of three vessels, V1, V2, and V3, with respective operating volumes of 0.22, 0.32, and 0.32 L (FIG. 1). […] Retention time was calculated as the reciprocal of dilution rate. […] Minimum doubling times of bacteria were calculated as 0.693/D, where D is the dilution rate (h−1) for each culture vessel. […] Steady-state conditions were assessed by monitoring short-chain fatty acid (SCFA) formation. […]"}, "[3]": {"system": "enterococci", "experiment": "In vitro gut model: gut microflora by selective culture, enterococci", "assay_type": "cell-based", "conditions": "both dosing regimens (Model C and D)", "text": "as §1\nas §2, with “1). Temperature (37° C.) and pH were automatically controlled to reflect the proximal-distal colon. Culture pH in the three vessels was 5.5, 6.2, and 6.8, respectively. Each fermentor was magnetically stirred and maintained under an atmosphere of CO2.” for “1).”"}, "[4]": {"experiment": "Antimicrobial concentration (bioassay) in the in vitro gut model", "method": "The continuous culture system consisted of three vessels, V1, V2, and V3, with respective operating volumes of 0.22, 0.32, and 0.32 L (FIG. 1). Temperature (37° C.) and pH were automatically controlled to reflect the proximal-distal colon. Culture pH in the three vessels was 5.5, 6.2, and 6.8, respectively. Each fermentor was magnetically stirred and maintained under an atmosphere of CO2. The growth medium was continuously sparged with O2-free N2 and fed by peristaltic pump to V1. V1 sequentially supplied V2 and V3 via a series of weirs. […] Retention time was calculated as the reciprocal of dilution rate. […] Minimum doubling times of bacteria were calculated as 0.693/D, where D is the dilution rate (h−1) for each culture vessel. […] Steady-state conditions were assessed by monitoring short-chain fatty acid (SCFA) formation. […]"}, "[5]": {"system": "C. difficile", "experiment": "MIC against C. difficile", "assay_type": "cell-based, Clostridium difficile", "conditions": "Clostridioides difficile"}, "[6]": {"system": "CDI", "experiment": "Expected clinical outcome of the new dosing regimens (proposed clinical study)", "assay_type": "in vivo, patients", "conditions": "expected benefit of the dosing regimens of the invention"}, "[7]": {"system": "C. difficile PCR ribotype 027", "conditions": "cited from earlier work"}, "[8]": {"system": "Bifidobacteria", "conditions": "both dosing regimens (Model A and Model B); cited from earlier work"}, "[9]": {"conditions": "some previous fidaxomicin dosing regimens; cited from earlier work"}, "[10]": {"system": "Clostridium species", "conditions": "in vitro; cited from earlier work"}, "[11]": {"conditions": "low solubility, low permeability; cited from earlier work"}, "[12]": {"conditions": "oral administration; cited from earlier work"}, "[13]": {"system": "CDI", "conditions": "two Phase III trials; cited from earlier work"}, "[14]": {"system": "C. difficile infections (CDI)", "conditions": "cited from earlier work"}, "[15]": {"conditions": "Model A: fidaxomicin 200 mg/L bd for 20 d"}},
  "note": "Entries after “also recorded” stand apart in the source; their conditions may differ. Read-outs that look alike come from different tables or passages of the source.",
  "data": [
    {"smiles": "CCc1c(Cl)c(O)c(Cl)c(O)c1C(=O)O[C@H]1[C@H](O)[C@H](OC)[C@H](OC/C2=C\\C=C\\C[C@H](O)/C(C)=C/[C@H](CC)[C@@H](O[C@@H]3OC(C)(C)[C@@H](OC(=O)C(C)C)[C@H](O)[C@@H]3O)/C(C)=C/C(C)=C/C[C@@H]([C@@H](C)O)OC2=O)O[C@@H]1C", "note": "[fidaxomicin, 3-[[[6-deoxy-4-O-(3,5-dichloro-2-ethyl-4,6-dihydroxybenzoyl)-2-O-methyl-β-D-mannopyranosyl]oxy]methyl]-12(R)-[[6-deoxy-5-C-methyl-4-O-(2-methyl-1-oxopropyl)-β-D-lyxo-hexopyranosyl]oxy]-11(S)-ethyl-8(S)-hydroxy-18(S)-(1(R)-hydroxyethyl)-9,13,15-trimethyloxacyclooctadeca-3,5,9,13,15-pentaene-2-one]", "values": [
      {"measurement": "Reduction of C. difficile viable counts to below the level of detection", "setting": "[1]", "result": "~6", "unit": "log10 cfu/mL"},
      {"measurement": "Reduction of spore counts to below the level of detection", "setting": "[1]", "result": "~4", "unit": "log10 cfu/mL"},
      {"measurement": "Reduction of toxin titres to below the level of detection", "setting": "[1]", "result": 3, "unit": "RU"},
      {"measurement": "Time to reduce C. difficile viable counts, spore counts and toxin titres to below the level of detection", "setting": "[1]", "result": "< 3", "unit": "days"},
      {"measurement": "Declines in Bifidobacteria to limit of detection", "setting": "[2]; both dosing regimens (Model C and D)", "result": "6-8 log10 cfu/mL"},
      {"measurement": "Recovery of Bifidobacteria populations", "setting": "[2]; both models (C and D), by the end of the experiment", "result": "recovered to near pre-installation counts; also recorded: recovered to close to pre-fidaxomicin levels"},
      {"measurement": "Declines in enterococci", "setting": "[3]", "result": "2-5 log10 cfu/mL"},
      {"measurement": "Persistence of fidaxomicin at supra MIC level", "setting": "[4]; dosing regimens i and ii", "result": "2 to 5", "unit": "µg/mL"},
      {"measurement": "Peak fidaxomicin concentration", "setting": "[4]; human", "result": "~100", "unit": "mg/L"},
      {"measurement": "MIC", "setting": "[5]", "result": 0.25, "unit": "µg/mL"},
      {"measurement": "Recurrence", "setting": "[6]", "result": "below 5%"},
      {"measurement": "CD TVC reduced to the limit of detection (LOD) by day", "setting": "[7]; [15]", "result": "≤ 5", "unit": "days"},
      {"measurement": "CYT (toxin titre) reduced to the limit of detection (LOD) by day", "setting": "[7]; [15]", "result": "≤ 7", "unit": "days"},
      {"measurement": "Reduction of CD TVCs", "setting": "[7]; Model B: 200 mg/L bd 5 d, still detectable on day 5 of treatment", "result": "~4", "unit": "log10 cfu/mL"},
      {"measurement": "TVC and SP after second 5 days fidaxomicin pulse", "setting": "[7]; Model B: 5 d, 5 d rest, further 5 d pulse", "result": "decreased TVC and SP to LOD"},
      {"measurement": "Decrease of bifidobacteria to below LOD", "setting": "[8]", "result": "6-8 log10 cfu/mL"},
      {"measurement": "Recovery of bifidobacteria", "setting": "[8]", "result": "did not recover"},
      {"measurement": "Persistence of fidaxomicin", "setting": "[9]", "result": 20, "unit": "mg/L"},
      {"measurement": "MIC values compared with optically pure S-isomer of tiacumicin B and other tiacumicin related compounds", "setting": "[10]", "result": "lower MIC values"},
      {"measurement": "BCS (Biopharmaceutics Classification System) class", "setting": "[11]", "result": "Class IV"},
      {"measurement": "Absorption from the intestinal tract", "setting": "[12]", "result": "poorly absorbed"},
      {"measurement": "Initial clinical cure of CDI versus vancomycin", "setting": "[13]", "result": "non-inferiority"},
      {"measurement": "Reduction of recurrence and sustained clinical response versus vancomycin", "setting": "[13]", "result": "superiority"},
      {"measurement": "Courses resulting in treatment success", "setting": "[14]; 18 courses of fidaxomicin in 14 patients (FID-TX, FID-CH, FID-TP)", "result": 18, "unit": "courses"},
      {"measurement": "RCDI", "setting": "[14]; FID-CH: 10-day fidaxomicin chaser, 8 courses, excluding RCDI due to antimicrobial exposure", "result": 25, "unit": "%"},
      {"measurement": "Average symptom-free interval (SFI)", "setting": "[14]; FID-CH", "result": 240, "unit": "days"},
      {"measurement": "RCDI", "setting": "[14]; FID-TP: taper 200 mg daily 7 days then 200 mg QOD 7-26 days, 7 courses", "result": "no RCDI"},
      {"measurement": "Average symptom-free interval (SFI)", "setting": "[14]; FID-TP", "result": 150, "unit": "days"},
      {"measurement": "RCDI episodes", "setting": "[14]; FID-TX: 200 mg BID for 10 days, 3 courses", "result": 66, "unit": "%"},
      {"measurement": "Average symptom-free interval (SFI)", "setting": "[14]; FID-TX", "result": 73, "unit": "days"}
    ]},
    {"smiles": "CN[C@H](CC(C)C)C(=O)N[C@H]1C(=O)N[C@@H](CC(N)=O)C(=O)N[C@H]2C(=O)N[C@H]3C(=O)N[C@H](C(=O)N[C@H](C(=O)O)c4cc(O)cc(O)c4-c4cc3ccc4O)[C@H](O)c3ccc(c(Cl)c3)Oc3cc2cc(c3O[C@@H]2O[C@H](CO)[C@@H](O)[C@H](O)[C@H]2O[C@H]2C[C@](C)(N)[C@H](O)[C@H](C)O2)Oc2ccc(cc2Cl)[C@H]1O", "note": "[vancomycin]", "values": [
      {"measurement": "Average symptom-free interval (SFI)", "setting": "[14]; following a vancomycin taper", "result": 37, "unit": "days"}
    ]}
  ]
}
